Reference: patent US7202228B2, “Hydrogelation agents” (Japan Science and Technology Agency, priority 2001, dated 2007)

Legend:
[1] = Gelatinizing ability in aqueous solutions of varying pH (gel formation observed); format: physicochemical; parameters: key to formation of a gel, pH 168 / formation of a gel, pH 401 / formation of a gel, pH 755 / formation of a gel, pH 918 / formation of a gel, milliQ water: the formation of gel is indicated by “G”; partial formation of gel is indicated by “LG”; unchanged aqueous solution is indicated by “S”; the formation of a precipitate is indicated by “P”; insolubility is indicated by “I”; details: for formation of a gel, pH 401: 10 mg compound in 0.5 ml buffer solution pH 401; for formation of a gel, pH 401 / formation of a gel, pH 755 / formation of a gel, pH 918 / formation of a gel, pH 168 / formation of a gel, milliQ water: 60° C. or more, ultrasound one hour, then room temperature; for formation of a gel, pH 755: 10 mg compound in 0.5 ml buffer solution pH 755; for formation of a gel, pH 918: 10 mg compound in 0.5 ml buffer solution pH 918; for formation of a gel, pH 168: 10 mg compound in 0.5 ml buffer solution; for formation of a gel, milliQ water: 10 mg compound in 0.5 ml milliQ water (distilled water); for solidification of milliQ water (distilled water) or water of pH 4–9: concentration of hydrogelatinizer 2wt %
Method: The gelatinizing ability was examined for aqueous solutions, of varying pH, of Compounds 1–7 synthesized in Manufacturing Examples 1–7. 10 mg of these compounds was placed in a sample bottle together with 0.5 ml of buffer solution adjusted to various pH, and while maintaining the temperature at 60° C. or more, the mixture was irradiated with ultrasound for one hour. After leaving the resulting aqueous solution at room temperature, the formation of a gel was observed.
In the table, the formation of gel is indicated by “G”, partial formation of gel is indicated by “LG”, unchanged aqueous solution is indicated by “S”, the formation of a precipitate is indicated by “P”, and insolubility is indicated by “I”.

[2] = Hydrogel formation in water (dissolve at 60° C. or more, leave at room temperature); format: physicochemical; details: left at room temperature
Method: Next, the method of manufacturing a hydrogel will be described. The gelatinizer of the invention is dissolved in an aqueous solution. A weakly acidic (pH 4) or weakly alkaline (pH 10) aqueous solution is preferred from the viewpoint of solubility. If the pH of the aqueous solution is less than 4, all of the phosphoric acid part is protonated, and it is difficult to dissolve in water. If the pH is higher than 10, the phosphoric acid part dissociates, and remains dissociated so that the water is not solidified. After dissolving the compound in the aqueous solution with heating, it is gradually cooled to room temperature and allowed to stand. In the dissolution process, heat alone is sufficient if the compound can be completely dissolved. If necessary, the compound can be efficiently converted to a simple dispersion in an aqueous solvent by ultrasound. The heating time is of the order of 30 minutes to 2 hours, but to ensure that dissolution of the compound is complete, it is preferably one hour or more. When the aqueous solution in which the compound has been dissolved is gradually cooled in air, and left at room temperature, the aqueous solution solidifies within one day-several days, and forms a hydrogel. […] The fluidity of the resulting gel may be varied by adjusting the pH of the water and the concentration of the gelatinizer during manufacture. In general, the formation of the hydrogel may be observed with the naked eye, but if the microstructure of the gel is observed using an optical microscope or scanning electron microscope, it can be seen that extremely fine fibers of the order of nanometers are entangled together to form a lattice structure.

[3] = 100 mg in 0.5 ml of water, dissolved at 60° C. or more

SMILES | formation of a gel, pH 401 [1] | formation of a gel, pH 755 [1] | formation of a gel, pH 918 [1] | formation of a gel, pH 168 [1] | formation of a gel, milliQ water [1] | hydrogel formation [2, 3] | solidification of milliQ water (distilled water) or water of pH 4–9 [1] | hydrogel formation ([2]; 1 mg in 0.5 ml of water, 60° C. or more, ultrasound one hour)
Cc1cn([C@H]2C[C@H](OP(=O)(O)OCCCCCCCCCCCCOP(=O)(O)O[C@H]3C[C@H](n4cc(C)c(=O)[nH]c4=O)O[C@@H]3CO)[C@@H](CO)O2)c(=O)[nH]c1=O [Compound 1, 1,12-(dodecanedioxy)bis(3′-phosphatidyl-2′-deoxythymidine)] | S | S | S | I | S | solidified after several days |  | 
Cc1cn([C@H]2C[C@H](OP(=O)(O)OCCCCCCCCCCCCCOP(=O)(O)O[C@H]3C[C@H](n4cc(C)c(=O)[nH]c4=O)O[C@@H]3CO)[C@@H](CO)O2)c(=O)[nH]c1=O [Compound 2, 1,13-(tridecanedioxy)bis-(3′-phosphatidyl-2′-deoxythymidine)] | S | S | S | I | S | a hydrogel was obtained |  | 
Cc1cn(C2CC(OP(=O)(O)OCCCCCCCCCCCCCCOP(=O)(O)OC3CC(n4cc(C)c(=O)[nH]c4=O)OC3CO)C(CO)O2)c(=O)[nH]c1=O (stereo not shown) [Compound 3, 1,14-(tetradecanedioxy)bis-(3′-phosphatidyl-2′-deoxythymidine)] | S | S | S | I | S |  |  | 
Cc1cn(C2CC(OP(=O)(O)OCCCCCCCCCCCCCCCOP(=O)(O)OC3CC(n4cc(C)c(=O)[nH]c4=O)OC3CO)C(CO)O2)c(=O)[nH]c1=O (stereo not shown) [Compound 4, 1,15-(pentadecanedioxy)-bis(3′-phosphatidyl-2′-deoxythymidine)] | S | S | S | I | P |  |  | 

Results, then the molecule that gave them:

formation of a gel, pH 401 [1] | formation of a gel, pH 755 [1] | formation of a gel, pH 918 [1] | formation of a gel, pH 168 [1] | formation of a gel, milliQ water [1] | hydrogel formation [2, 3] | solidification of milliQ water (distilled water) or water of pH 4–9 [1] | hydrogel formation ([2]; 1 mg in 0.5 ml of water, 60° C. or more, ultrasound one hour) | SMILES
S | S | S | I | P |  |  |  | Cc1cn([C@H]2C[C@H](OP(=O)(O)OCCCCCCCCCCCCCCCCOP(=O)(O)O[C@H]3C[C@H](n4cc(C)c(=O)[nH]c4=O)O[C@@H]3CO)[C@@H](CO)O2)c(=O)[nH]c1=O [Compound 5, 1,16-(hexadecanedioxy)-bis(3′-phosphatidyl-2′-deoxythymidine)]
P | P | S | I | G |  | efficiently solidified |  | Cc1cn([C@H]2C[C@H](OP(=O)(O)OCCCCCCCCCCCCCCCCCCOP(=O)(O)O[C@H]3C[C@H](n4cc(C)c(=O)[nH]c4=O)O[C@@H]3CO)[C@@H](CO)O2)c(=O)[nH]c1=O [Compound 6, 1,18-(octadecanedioxy)bis-(3′-phosphatidyl-2′-deoxythymidine)]
LG | G | G | I | G |  | efficiently solidified | solidified after several days | Cc1cn([C@H]2C[C@H](OP(=O)(O)OCCCCCCCCCCCCCCCCCCCCOP(=O)(O)O[C@H]3C[C@H](n4cc(C)c(=O)[nH]c4=O)O[C@@H]3CO)[C@@H](CO)O2)c(=O)[nH]c1=O [Compound 7, 1,20-(icosanedioxy)bis-(3′-phosphatidyl-2′-deoxythymidine)]
